Test results from US5599975A, “Cyclised analogues of fatty acid metabolites” (Adir Et Compagnie, priority 1993, dated 1997).

System: rabbit platelets
Experiment: Platelet aggregation study: anti-aggregating effect on platelets activated with collagen
Assay type: cell-based
Details: Oryctolagus cuniculus, 0.05 h, collagen (2 μl/ml), 37° C., 3 minutes incubation, aggregometer, 1000 rpm, read-out: IC50 (concentration of antagonist necessary to produce 50% inhibition of the aggregating responses to collagen)
Description: The study is carried out on rabbit platelets. […] The plasma rich in platelets (PRP) is obtained by centrifuging (20° C.) at 250 g for 20 minutes. The PRP is centrifuged again (1000 g) for 15 minutes and the platelet sediment is again suspended in a saline solution buffered with tris(hydroxymethyl)aminomethane, containing gelatin (0.2%). After centrifuging again (1000 g; 15 min.), the sediment is again suspended in a physiological solution and stored at room temperature.
The anti-aggregating effect of the products is examined on platelets activated with collagen (2 μl/ml). The platelet aggregation is carried out at 37° C. in siliconised glass tubes using an aggregometer (Coultronics). The platelets are stirred at 1000 rpm. To test the antagonist effect, the PRP is incubated for 3 minutes at 37° C. with the substance to be tested. The collagen is then added (2 μl/ml).

SMILES | IC50 [µM]
CCCCCC#CCC(O)c1cccc(/C=C\CCCC(=O)O)c1 (centres unmarked) [Example 4] | 2.2
CCCCCC(O)c1cccc(/C=C\CCCC(=O)O)c1 (centres unmarked) [Example 12, Sodium (5Z)-6-[3-(1-hydroxyhex-1-yl)phenyl]hex-5-enoate] | 20
CCCCCC(O)c1cccc(CCCCCC(=O)O)c1 (centres unmarked) [Example 15, Sodium 6-[3-(1-hydroxyhexyl)phenyl]hexanoate] | 21
CCCCCC(O)c1cccc(/C=C\CCCC(=O)O)n1 (centres unmarked) [Example 18, Sodium (5Z)-6-[6-(1-hydroxyhex-1-yl)pyrid-2-yl]hex-5-enoate] | 30
CCCCC/C=C\CC(O)c1cccc(/C=C\CCCC(=O)O)c1 (centres unmarked) [Example 26, Sodium (5Z)-6-{3-[(3Z)-(1-hydroxynon-3-en-1-yl)]phenyl}hex-5-enoate] | 1.8
